Usually IC50 stands for the midpoint of a concentration-inhibition curve.

One assay has as its target E3 ubiquitin ligase CRBN (Homo sapiens, UniProt Q96SW2). In words: CRBN competitive binding assay (HTRF, thalidomide-XL665 displacement). The following applies: competition with XL665-labeled thalidomide for GST-tagged CRBN protein, 3 hours at room temperature. The method, then: CRBN binding activity test kit (CEREBLON BINDING KITS (PE, 64BD CRBN PEG)).
The detection is based on homogeneous time-resolved fluorescence (HTRF) technology.
This kit uses a europium-labeled GST antibody (GST Eu Cryptate Antibody) as the donor and XL665-labeled thalidomide (Thalidomide-Red reagent) as the receptor. The donor binds to the GST-tagged CRBN protein.
The donor and acceptor were each diluted 50-fold using the buffer (PROTAC binding buffer 1) in the kit. The CRBN protein was diluted 45-fold. The 8 mM compound solution disclosed in the present invention was diluted 10-fold using the diluent (1 X diluent) in the kit, and then the dilutd solution was subjected to 5-fold gradient dilution of the diluent, diluted 7 times sequentially. […] The mixture was incubated at room temperature for 3 hours. The ratio of the acceptor and donor emission signals for each individual well was calculated.
IC50 value was calculated based on compound concentration, Ratio, and coefficient of variation using GraphPad Prism.
Background: In TR-FRET formats the signal depends on donor and acceptor labels being close together.
`O=C1CCC(c2ccc3c(c2)OC2(CCNCC2)CC3)C(=O)N1` (centres unmarked) [Example A4] came in with a half-inhibitory concentration (IC50) of 0.55 µM.

Staying with this assay, now noted: competition with XL665-labeled thalidomide for GST-tagged CRBN protein, 3 hours at room temperature; read-out: IC50.
Take `O=C1CCN(c2ccc3c(c2)OCCC2CNCCN32)C(=O)N1` (centres unmarked) [Example B1, 1-(2,3,4,4a,5,6-hexahydro-1H-benzo[b]pyrazino[1,2-d][1,4]oxazepin-9-yl)dihydropyrimidine-2,4(1H,3H)-dione]: the half-maximal inhibitory concentration (IC50) came out at 5.84 µM.
In the case of `O=C1CCN(c2ccc3c(c2)CCC2(CNC2)O3)C(=O)N1` [Example A14, 1-(spiro(azetidine-3,2'-benzodihydropyran)-6'-yl)dihydropyrimidine-2,4(1H,3H)-dione], the concentration for half-maximal inhibition (IC50) worked out at 8.36 µM.
On the same count and under the same terms, to `O=C1CCN(c2cnc3c(c2)OCC[C@@H]2CNCCN32)C(=O)N1` [Example B5, (R)-1-(7,7a,8,9,10,11-hexahydro-6H-pyrazino[1,2-d]pyrido[3,2-b][1,4]oxirane-3-yl)dihydropyrimidine-2,4(1H,3H)-dione] belongs 10.2 µM; to `O=C1CCN(c2ccc3c(c2)COC[C@H]2CNCCN32)C(=O)N1` [Example B8, (R)-1-(1,2,3,4,4a,5-hexahydro-7H-benzo[e]pyrazino[2,1-c][1,4]oxazepin-9-yl)dihydropyrimidine-2,4(1H,3H)-dione], 10 µM; to `COc1cc2c(cc1N1CCC(=O)NC1=O)OCC[C@H]1CN(C(C)=O)CCN21` [Example B12], 2.26 µM.
On to `O=C1CCN(c2cc3c(cc2Cl)N2CCNC[C@@H]2CCO3)C(=O)N1` [Example B15, (S)-1-(10-chloro-2,3,4,4a,5,6-hexahydro-1H-benzo[b]pyrazino[1,2-d][1,4]oxazepin-9-yl)dihydropyrimidine-2,4(1H,3H)-dione], for which the 50% inhibitory concentration (IC50) stood at 3.7 µM.
Still for that read-out and setting: to `O=C1CCN(c2ccc3c(c2)OC2(CCNCC2)CC3)C(=O)N1` [Example A2, 1-(spiro[chroman-2,4'-piperidin]-7-yl)dihydropyrimidine-2,4(1H,3H)-dione] belongs 1.53 µM; to `O=C1CCN(c2ccc3c(c2)NC(=O)C2CNCCN32)C(=O)N1` (centres unmarked) [Example B10, 1-(5-oxo-2,3,4,4a,5,6-hexahydro-1H-pyrazino[1,2-a]quinoxalin-8-yl)dihydropyrimidine-2,4(1H,3H)-dione], 3.34 µM.
On the same count and under the same terms, the value for `O=C1CCN(c2ccc3c(c2)OC2(CC3)CNC2)C(=O)N1` [Example A5, 1-(spiro[azetidine-3,2'-chroman]-7'-yl)dihydropyrimidine-2,4(1H,3H)-dione] was 3.06 µM.
`O=C1CCN(c2cnc3c(c2)OCC[C@H]2CNCCN32)C(=O)N1` [Example B4, (S)-1-(7,7a,8,9,10,11-hexahydro-6H-pyrazino[1,2-d]pyrido[3,2-b][1,4]oxazepin-3-yl)dihydropyrimidine-2,4(1H,3H)-dione]: the half-maximal inhibitory concentration (IC50) is 5.49 µM.
For the molecule `O=C1CCN(c2ccc3c(c2)CC2(CNC2)CO3)C(=O)N1` [Example A16, 1-(spiro[azetidine-3,3'-chroman]-6'-yl)dihydropyrimidine-2,4(1H,3H)-dione], the IC50 was determined as 12.6 µM.
Consider `O=C1CCN(c2ccc3c(c2)OCC32CCNCC2(F)F)C(=O)N1` (centres unmarked) [Example A17, 1-(3',3'-difluoro-2H-spiro[benzofuran-3,4'-piperidin]-6-yl)dihydropyrimidine-2,4(1H,3H)-dione], for which the IC50 turned out to be 1.73 µM.
On the same count and under the same terms, the value for `O=C1CCN(c2cccc3c2OCC32CCNCC2)C(=O)N1` [Example A13, 1-(2H-spiro[benzofuran-3,4'-piperidin]-7-yl)dihydropyrimidine-2,4(1H,3H)-dione] was 28.8 µM; that for `O=C1CCN(c2ccc3c(c2)OCC[C@H]2CNCCN32)C(=O)N1` [Example B2, (S)-1-(2,3,4,4a,5,6-hexahydro-1H-benzo[b]pyrazino[1,2-d][1,4]oxazepin-9-yl)dihydropyrimidine-2,4(1H,3H)-dione] was 6.11 µM; that for `O=C1CCN(c2ccc3c(c2)CCC2(CCNCC2)O3)C(=O)N1` [Example A6, 1-(spiro[chromate-2,4'-piperidin]-6-yl)dihydropyrimidine-2,4(1H,3H)-dione] was 7.47 µM.
For `O=C1CCN(c2ccc3c(c2)COC[C@@H]2CNCCN32)C(=O)N1` [Example B9, (S)-1-(1,2,3,4,4a,5-hexahydro-7H-benzo[e]pyrazino[2,1-c][1,4]oxazepin-9-yl)dihydropyrimidine-2,4(1H,3H)-dione], the half-maximal inhibitory concentration (IC50) worked out at 8.59 µM.
`O=C1CCN(c2ccc3c(c2)CC2(CCNCC2)O3)C(=O)N1` [Example A12, 1-(3H-spiro[benzofuran-2,4'-piperidin]-5-yl)dihydropyrimidine-2,4(1H,3H)-dione]: the IC50 was 13.3 µM.
On to `O=c1ccn(-c2ccc3c(c2)OC2(CCNCC2)CC3)c(=O)[nH]1` [Example A1, 1-(spiro[chroman-2,4'-piperidin]-7-yl)pyrimidine-2,4(1H,3H)-dione], for which the IC50 came to 25.7 µM.
Same read-out and setting: the value for `O=C1CCN(c2ccc3c(c2)OCC[C@@H]2CNCCN32)C(=O)N1` [Example B3, (R)-1-(2,3,4,4a,5,6-hexahydro-1H-benzo[b]pyrazino[1,2-d][1,4]oxazepin-9-yl)dihydropyrimidine-2,4(1H,3H)-dione] was 5.67 µM; that for `CN1CC2(CCNCC2)Oc2cc(N3CCC(=O)NC3=O)ccc21` [Example A10, 1-(4-methyl-3,4-dihydrospiro[benzo[b][1,4]oxazine-2,4'-piperidin]-7-yl)dihydropyrimidine-2,4(1H,3H)-dione] was 0.91 µM.
The same measure, in the same setting: to `CN1CC[C@H]2CNCCN2c2ccc(N3CCC(=O)NC3=O)cc21` [Example B7, (S)-1-(7-methyl-1,2,3,4,4a,5,6,7-octahydrobenzo[b]pyrazino[1,2-d][1,4]diazepin-9-yl)dihydropyrimidine-2,4(1H,3H)-dione] belongs 3.81 µM; to `O=C1CCC2(CC1)CCc1ccc(N3CCC(=O)NC3=O)cc1O2` [Example A3, 1-(4'-oxospiro[chroman-2,1'-cyclohexan]-7-yl)dihydropyrimidine-2,4(1H,3H)-dione], 0.59 µM.
Same read-out and setting: the value for `O=C1CCN(c2ccc3c(c2)OCC2(CCNCC2)C3)C(=O)N1` [Example A7, 1-(spiro[benzopyran-3,4'-piperidin]-7-yl)dihydropyrimidine-2,4(1H,3H)-dione] was 12.7 µM.
Turning to `O=C1CCN(c2ccc3c(c2)CC2(CCNCC2)CO3)C(=O)N1` [Example A8, 1-(spiro[benzopyran-3,4'-piperidin]-6-yl)dihydropyrimidine-2,4(1H,3H)-dione], the IC50 came to 9.5 µM.
On the same count and under the same terms, to `CN1CC2CNCCN2c2ccc(N3CCC(=O)NC3=O)cc21` (centres unmarked) [Example B11, 1-(6-methyl-2,3,4,4a,5,6-hexahydro-1H-pyrazino[1,2-a]quinoxalin-8-yl)dihydropyrimidine-2,4(1H,3H)-dione] belongs 3.76 µM.
In the case of `O=C1CCN(c2ccc3c(c2)NC(=O)CC2CNCCN32)C(=O)N1` (centres unmarked) [Example B6, 1-(6-oxo-1,2,3,4,4a,5,6,7-octahydrobenzo[b]pyrazino[1,2-d][1,4]diazepin-9-yl)dihydropyrimidine-2,4(1H,3H)-dione], the IC50 was 24.3 µM.
The same measure, in the same setting: to `O=C1CCN(c2ccc3c(c2)OC2(CCNCC2)C3)C(=O)N1` [Example A11, 1-(3H-spiro[benzofuran-2,4'-piperidin]-6-yl)dihydropyrimidine-2,4(1H,3H)-dione] belongs 6.15 µM; to `O=C1CCN(c2ccc3c(c2)OCC32CCNCC2)C(=O)N1` [Example A9, 1-(2H-spiro[benzofuran-3,4'-piperidin]-6-yl)dihydropyrimidine-2,4(1H,3H)-dione], 11.5 µM.

These data come from patent EP4806892A1, “CEREBLON E3 UBIQUITIN LIGASE INHIBITOR” (GAN & LEE PHARMACEUTICALS CO., LTD., priority 2023, dated 2025).
